{
  "source": "patent US5707963A",
  "about": "“Methods of using growth inhibitory peptides” (Health Research, Incorporated, priority 1996, dated 1998)",
  "key": {"[1]": {"test_system": "human chorionic gonadotropin (HCG)-stimulated growth of mouse ovary", "assay": "In vivo wet weight bioassay, inhibition of HCG-stimulated growth of the ovary", "details": "for Percent Growth Inhibition: immature mouse ovary", "protocol": "An in vivo wet weight bioassay measuring inhibition of human chorionic gonadotropin (HCG)-stimulated growth of the ovary was performed. The procedure of Mizejewski et al. (see previous citations) was used for the wet weight assay. The applicability of the wet weight bioassay for measuring HCG-stimulated growth of the ovary is disclosed by Mizejewski, G. J., \"Human Chorionic Gonadotrophin: Comparative Studies of Ovarian Uptake In Mammals\", Comp Biochem Physio 52A:29-34 (1975).\n(§1) Briefly, the synthesized powdered peptide was reconstituted in saline (1 mg/ml) to form a stock solution of the GIP. The stock solution was appropriately diluted to provide dosages of 10ng to 100 μg/mouse. 0.1 ml of the appropriately diluted GIP was injected intraperitoneally into 15-18 day old Nya:NYLAR female mice. Control mice were injected with saline. 1 hour after this first injection, an HCG challenge of 2.8 I.U. of HCG in 0.05 ml saline was given to determine the change in ovarian responsiveness to HCG resulting from exposure to the first injection. 23 hours after the second injection, ovaries were dissected, trimmed free of connective tissue and immediately weighed. The ovarian wet weights were normalized to mouse body weight (mg ovarian weight/g of body weight) to compensate for differences in body weight among litters of the same age. Percent inhibition of HCG-stimulated ovarian growth was calculated as described by Mizejewski et al. (1983)."}, "[2]": {"test_system": "estrogen-stimulated growth of mouse uterus", "assay_type": "in vivo"}, "[3]": {"test_system": "human MCF-7 breast cancer cells", "assay": "In vitro MCF-7 focus assay (estrogen-induced foci formation)", "assay_type": "cell-based", "details": "for Percent Foci Inhibition: MCF-7 Cell Culture", "source_text": "In an in vitro bioassay, the MCF-7 focus assay was used for preliminary evaluation of the GIP preparation for both estrogenicity and antiestrogenicity. One of the major consequences of human estrogen exposure is induction of cell proliferation and subsequent structural rearrangement of the acini, a process based on the interactions of multiple estrogen dependent gene expressions. […] The estrogen dependent MCF-7 cell proliferation is primarily a postconfluent event which leads to development of multicellular aggregates (foci). […] The procedure of Gierthy et al. was used for the MCF-7 assay of the GIP (see Gierthy, J. F. et al., \"Correlation of in Vitro and in Vivo Growth Suppression of MCF-7 Human Breast Cancer by 2,3,7,8-Tetrachlorodibenzo-p-dioxin\" Cancer Research 53:3149-3153 (1993)).\nBriefly, stock MCF-7 cells were suspended in medium (see Gierthy, J. F. et al. 1993) after treatment with trypsin (0.25%) and seeded into 24-well plastic tissue culture plates. The MCF-7 cells were seeded (2 cm^2 /well) at a density of b 10^5 cells/well in 1 ml of medium, and incubated at 37° C. in a humidified atmosphere containing 5% CO2. The cultures were refed at 24 hours and every 4-5 days thereafter with 2 ml medium supplemented with 1×10^-9 M 17β-estradiol, a concentration which induces maximum focus development, and various concentrations of GIP (10^-8 M-10^-13 M) in nonestrogenic DC5 medium and estrogenic DF5 medium which contains high levels of bovine alpha-fetoprotein (5% fetal bovine serum supplemented). After 14 days the cultures were fixed with formalin in pH 7.4 buffer (see Gierthy, J. F. et al. 1993) and stained with 1% rhodamine B. Foci were counted by using an automated colony counter modified to magnify the image of the microscopic multicellular foci. The foci retained the red rhodamine B stain to a greater extent than did surrounding monolayer cells, affording appropriate contrast for enumeration."}, "[4]": {"test_system": "hydrocortisone (HC)-stimulated growth of mouse spleen", "assay": "In vivo wet weight bioassay, inhibition of HC-stimulated growth of the spleen", "details": "for Percent Growth Inhibition: immature mouse spleen", "protocol": "An in vivo wet weight bioassay measuring inhibition of hydrocortisone (HC)-stimulated growth of the spleen was also performed. The procedure of Mizejewski et al. (see previous citations) was used for the wet weight assay. The applicability of the wet weight bioassay for measuring HC-stimulated growth of the spleen is disclosed by el-Fouhil, A. F. and Turkall, R. M., \"Effect of alternate-day hydrocortisone therapy on the immunologically immature rat. I: Effect on blood cell count, immunoglobulin concentrations, and body and organ weights\", Toxicologic Pathology 21(4):377-382 (1993).\nas §1, with “500 ng” for “10ng”, “1 hour after this first injection, an HCG challenge of 2.8 I.U. of HCG in 0.05 ml saline was given to determine the change in ovarian responsiveness to HCG resulting from exposure to the first injection.” left out, “spleens” for “ovaries”, “spleenic” for “ovarian”, “HC-stimulated spleenic” for “HCG-stimulated ovarian”"}},
  "note": "Where “and” joins values, the source holds several entries; their conditions need not be identical. Equal entries are not always repeated. Where two headings read alike, the source gives them in different places.",
  "data": [
    {"substance": "Leu Ser Glu Asp Lys Leu Leu Ala Cys Gly Glu Gly Ala Ala Asp Ile ile Ile Gly His Leu Cys Ile Arg His Glu Met Thr Pro Val Ash Pro Gly Val (LSEDKLLACGEGAADIIIGHLCIRHEMTPVNPGV) [GIP]", "values": [
      {"measurement": "inhibition of HCG-induced growth (range over Table 5)", "setting": "[1]; 10ng to 100 μg/mouse", "result": "22-100%"},
      {"measurement": "Percent Growth Inhibition", "setting": "[1]; 100 ng per mouse", "result": 70, "unit": "%"},
      {"measurement": "Percent Growth Inhibition", "setting": "[1]; 125 ng per mouse", "result": 50, "unit": "%"},
      {"measurement": "Percent Growth Inhibition", "setting": "[1]; 250 ng per mouse", "result": 56, "unit": "%"},
      {"measurement": "Percent Growth Inhibition", "setting": "[1]; 500 ng per mouse", "result": 67, "unit": "%"},
      {"measurement": "Percent Growth Inhibition", "setting": "[1]; 1 μg per mouse", "result": "100% and 79%"},
      {"measurement": "Percent Growth Inhibition", "setting": "[1]; 10 μg per mouse", "result": 94, "unit": "%"},
      {"measurement": "Percent Growth Inhibition", "setting": "[1]; 100 μg per mouse i.p., HCG 2.8 I.U.", "result": 22, "unit": "%"},
      {"measurement": "most effective dose", "setting": "[1]; immature ovary, produced 100% growth inhibition", "result": 1, "unit": "μg/mouse"},
      {"measurement": "activity in adult cycling mice", "setting": "[2]; adult cycling mice, with and without addition of purified human full-length AFP", "result": "active"},
      {"measurement": "Percent Growth Inhibition", "setting": "[2]; adult mouse uterus, 25 ng per mouse", "result": 66, "unit": "%"},
      {"measurement": "Percent Growth Inhibition", "setting": "[2]; adult mouse uterus, 100 ng per mouse, added human AFP", "result": 79, "unit": "%"},
      {"measurement": "inhibition of estrogen-stimulated growth", "setting": "[2]; adult mouse uterus, peptide diluted 2,000-fold or more", "result": 80, "unit": "%"},
      {"measurement": "inhibition in the MCF-7 cell culture assays", "setting": "[3]; 10^-10 to 10^-13 M peptide concentration", "result": "60-70%"},
      {"measurement": "Percent Foci Inhibition", "setting": "[3]; 14 days", "result": "60-70%"},
      {"measurement": "Percent Foci Inhibition", "setting": "[3]; peptide molarity 10^-11 -10^-13, 14 days", "result": "60-74% and 50-60%"},
      {"measurement": "Percent Foci Inhibition", "setting": "[3]; peptide molarity 10^-12, added human AFP", "result": 40, "unit": "%"},
      {"measurement": "maximum inhibition of DF5 induced foci development", "setting": "[3]; estrogenic DF5 medium, GIP 10^-10 to 10^-13 M", "result": 74, "unit": "%"},
      {"measurement": "concentration at which estrogenic foci induction starts", "setting": "[3]; nonestrogenic DC5 medium, dose responsive", "result": "10^-8 M"},
      {"measurement": "inhibition of HC-induced growth (range over Table 4)", "setting": "[4]; 500 ng to 100 μg/mouse", "result": "24-100%"},
      {"measurement": "Percent Growth Inhibition", "setting": "[4]; 1.0 μg per mouse", "result": 100, "unit": "%"},
      {"measurement": "Percent Growth Inhibition", "setting": "[4]; 10.0 μg per mouse", "result": 76, "unit": "%"},
      {"measurement": "Percent Growth Inhibition", "setting": "[4]; 100 μg per mouse, 1.0 μg of HC instead of 0.5 μg", "result": "24% and 34%"},
      {"measurement": "Percent Growth Inhibition", "setting": "[4]; 100 μg per mouse, HC 0.5 micrograms", "result": 67, "unit": "%"},
      {"measurement": "most effective dose", "setting": "[4]; immature spleen, produced 100% growth inhibition", "result": 1.0, "unit": "μg/mouse"}
    ]}
  ]
}
